Assays:
Test in all cases: Bliss excess, mean over the matrix (fraction); higher = more synergy
[1] = tested on: MDA-MB-231 (Breast Carcinoma)
Method in brief: (§1)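 Cell lines grown in DMEM/F12 or RPMI with 10% FBS were plated in 1536-well plates and held 24 hours at 37°C, 5% CO2 before 72 hours of exposure to two-drug dose matrices, with DMSO typically at 0.2%. CellTiter-Glo 2.0 luminescence gave viability, which was converted to inhibition. Vehicle wells were set to 0 and blank wells to 1. Combination Emax is the second-highest inhibition in the matrix, and Bliss excess is the observed combination effect minus the expected EA + EB − EA·EB, where EA and EB are the single-agent effects.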

[2] = tested on: NALM-6 (B-Lymphoblastic Leukemia)
Method in brief: as §1

[3] = tested on: MDA-MB-157 (Breast Carcinoma)
Method in brief: as §1

[4] = tested on: COR-L95 (Small Cell Lung Carcinoma)
Method in brief: as §1

[5] = tested on: NCI-H211 (Small Cell Lung Carcinoma)
Method in brief: as §1

[6] = tested on: G-292-Clone-A141B1 (Osteosarcoma)
Method in brief: as §1

[7] = tested on: SW1990 (Pancreatic Carcinoma)
Method in brief: as §1

[8] = tested on: SW1088 (Low Grade Glioma)
Method in brief: as §1

[9] = tested on: SK-N-FI (Neuroblastoma)
Method in brief: as §1

[10] = tested on: SW1783 (Low Grade Glioma)
Method in brief: as §1

[11] = tested on: LS-513 (Colorectal Carcinoma)
Method in brief: as §1

[12] = tested on: DB (B-Cell Non-Hodgkin's Lymphoma)
Method in brief: as §1

[13] = tested on: ES7 (Ewing's Sarcoma)
Method in brief: as §1

[14] = tested on: KATOIII (Gastric Carcinoma)
Method in brief: as §1

[15] = tested on: NCI-H2595 (Mesothelioma)
Method in brief: as §1

[16] = tested on: DOV13 (Ovarian Carcinoma)
Method in brief: as §1

[17] = tested on: DSH1 (Bladder Carcinoma)
Method in brief: as §1

[18] = tested on: HT-29 (Colorectal Carcinoma)
Method in brief: as §1

[19] = tested on: MFH-ino (Other Solid Carcinomas)
Method in brief: as §1

[20] = tested on: OCI-AML2 (Acute Myeloid Leukemia)
Method in brief: as §1

Compound | Bliss excess [1] | Bliss excess [2] | Bliss excess [3] | Bliss excess [4] | Bliss excess [5] | Bliss excess [6] | Bliss excess [7] | Bliss excess [8] | Bliss excess [9] | Bliss excess [10] | Bliss excess [11] | Bliss excess [12] | Bliss excess [13] | Bliss excess [14] | Bliss excess [15] | Bliss excess [16] | Bliss excess [17] | Bliss excess [18] | Bliss excess [19] | Bliss excess [20]
N#Cc1cnc(Nc2cc(NC[C@H]3CNCCO3)c(C(F)(F)F)cn2)cn1 [SRA737] + Nc1ccn([C@@H]2O[C@H](CO)[C@@H](O)C2(F)F)c(=O)n1 [Gemcitabine] (first compound max 10 µM, 7x7, partner max 0.3 µM) | 0.105 | -0.0673 | 0.0499 | -0.0067 | 0.0372 | 0.0405 | -0.0384 | -0.0658 | 0.0476 | 0.0091 | -0.0189 | 0.0174 | 0.0172 | -0.0794 | 0.0252 | 0.0821 | 0.0195 | 0.0573 | -0.0148 | –
CN(CCO)CC[C@H](CSc1ccccc1)Nc1ccc(S(=O)(=O)NC(=O)c2ccc(N3CCC([C@@H](O)c4ccccc4-c4ccc(Cl)cc4)CC3)cc2)cc1S(=O)(=O)C(F)(F)F [AZD4320] + CC(=O)O[C@H]1C(=O)[C@@]2(C)[C@H]([C@H](OC(=O)c3ccccc3)[C@]3(O)C[C@H](OC(=O)[C@H](O)[C@@H](NC(=O)c4ccccc4)c4ccccc4)C(C)=C1C3(C)C)[C@]1(OC(C)=O)CO[C@@H]1C[C@@H]2O [Paclitaxel] (first compound max 1 µM, 7x7, partner max 3 µM) | 0.111 | 0.013 | 0.0168 | 0.141 | 0.0259 | 0.157 | 0.329 | 0.0303 | -0.025 | 0.0754 | -0.0136 | 0.043 | 0.0227 | 0.168 | 0.0192 | 0.0136 | 0.163 | 0.0034 | 0.0474 | -0.0016
C=CCn1c(=O)c2cnc(Nc3ccc(N4CCN(C)CC4)cc3)nc2n1-c1cccc(C(C)(C)O)n1 [AZD1775] + Nc1ccn([C@@H]2O[C@H](CO)[C@@H](O)C2(F)F)c(=O)n1 [Gemcitabine] (first compound max 1 µM, partner max 0.3 µM) | 0.0686 | -0.0093 | 0.106 | -0.0611 | 0.0129 | -0.0405 | -0.0395 | -0.0468 | -0.0167 | 0.0121 | -0.04 | – | 0.0319 | -0.0196 | -0.0765 | 0.016 | -0.0833 | 0.0422 | -0.0087 | 0.0415
C=CCn1c(=O)c2cnc(Nc3ccc(N4CCN(C)CC4)cc3)nc2n1-c1cccc(C(C)(C)O)n1 [AZD1775] + CCc1c2c(nc3ccc(O)cc13)-c1cc3c(c(=O)n1C2)COC(=O)[C@]3(O)CC [SN-38] (first compound max 1 µM, partner max 0.3 µM) | 0.0031 | -0.0563 | 0.0495 | -0.103 | -0.0576 | 0.023 | -0.0908 | -0.0641 | -0.0038 | -0.0817 | -0.0867 | -0.0366 | -0.0228 | -0.0948 | -0.0096 | -0.0262 | -0.0654 | 0.027 | -0.0756 | -0.0278
CN(CCO)CC[C@H](CSc1ccccc1)Nc1ccc(S(=O)(=O)NC(=O)c2ccc(N3CCC([C@@H](O)c4ccccc4-c4ccc(Cl)cc4)CC3)cc2)cc1S(=O)(=O)C(F)(F)F [AZD4320] + Nc1ccn([C@@H]2O[C@H](CO)[C@@H](O)C2(F)F)c(=O)n1 [Gemcitabine] (first compound max 1 µM, 7x7, partner max 0.3 µM) | -0.0245 | -0.0024 | -0.0349 | 0.0634 | 0.0135 | -0.0015 | 0.0103 | -0.0628 | 0.0077 | 0.0546 | -0.0318 | -0.029 | -0.0271 | 0.0213 | -0.0542 | -0.0366 | 0.0381 | 0.0191 | -0.0252 | 0.0007
Cc1nc(-c2cn3c(n2)-c2ccc(-c4cnn(C(C)(C)C(N)=O)c4)cc2OCC3)n(C(C)C)n1 [Taselisib] + O=C(Nc1ccc2[nH]nc(-c3ccncc3)c2c1)[C@@H]1CCN(CC(=O)N2CCN(c3ccc(-c4ncccn4)cc3)CC2)C1 [SCH772984] (first compound max 10 µM, 7x7, partner max 5 µM) | 0.0595 | 0.017 | 0.0631 | -0.0479 | 0.126 | -0.0258 | 0.0724 | -0.0867 | 0.0465 | -0.0071 | -0.0377 | 0.0783 | 0.036 | -0.0189 | -0.0324 | 0.0568 | 0.0051 | 0.111 | -0.0018 | 0.132
C[C@@H](Oc1cc(-c2cnn(C3CCNCC3)c2)cnc1N)c1c(Cl)ccc(F)c1Cl [Crizotinib] + Cn1cnc2c(F)c(Nc3ccc(Br)cc3Cl)c(C(=O)NOCCO)cc21 [Selumetinib] (first compound max 10 µM, 7x7, partner max 10 µM) | 0.0323 | -0.0149 | -0.0125 | -0.0955 | -0.0327 | -0.0223 | -0.0626 | -0.0256 | 0.0321 | -0.0486 | -0.0167 | -0.0472 | -0.0134 | -0.0081 | -0.064 | -0.0732 | -0.117 | -0.018 | -0.026 | -0.0036

Source: the supplement of paper PMC11061612
